# From ChEMBL document CHEMBL4417633, “Inhibitory polypeptides specific to WNT inhibitors” (2017)
# pIC50: −log10 of the molar value. Where a SMILES comes first, the peptide text is derived from it.
# Tests used:
# [1] = target: T1, Dickkopf-related protein 1 (Homo sapiens, UniProt O94907); assay: Inhibition of biotin-labeled human recombinant DKK1 assessed as reduction in DKK1 interaction with LRP-6/Fc incubated overnight by chemiluminescence based Alpha-screen assay
# T1 sequence (O94907 whole entry): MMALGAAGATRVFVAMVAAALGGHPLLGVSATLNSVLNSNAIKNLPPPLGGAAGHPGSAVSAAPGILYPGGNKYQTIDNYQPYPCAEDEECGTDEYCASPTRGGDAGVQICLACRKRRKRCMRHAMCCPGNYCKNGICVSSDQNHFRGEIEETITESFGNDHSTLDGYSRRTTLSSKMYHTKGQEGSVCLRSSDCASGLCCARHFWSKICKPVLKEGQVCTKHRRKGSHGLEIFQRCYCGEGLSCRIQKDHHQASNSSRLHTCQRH
# [2] = target: T2, Dickkopf WNT-signaling pathway inhibitor 1 (Rattus norvegicus, UniProt A6I0Z0); assay: Inhibition of biotin-labeled rat recombinant DKK1 assessed as reduction in DKK1 interaction with LRP-6/Fc incubated overnight by chemiluminescence based Alpha-screen assay
# T2 sequence (A6I0Z0 whole entry): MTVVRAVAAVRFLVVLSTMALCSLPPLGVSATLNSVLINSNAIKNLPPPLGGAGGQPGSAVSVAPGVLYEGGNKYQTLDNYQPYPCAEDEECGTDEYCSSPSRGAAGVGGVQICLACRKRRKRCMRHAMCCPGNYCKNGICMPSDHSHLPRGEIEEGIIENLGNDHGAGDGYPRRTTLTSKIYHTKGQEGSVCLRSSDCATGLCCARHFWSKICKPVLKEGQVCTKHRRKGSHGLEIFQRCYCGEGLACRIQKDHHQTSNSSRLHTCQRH
pIC50 [1],pIC50 [2],SMILES
7.10 to 7.40,7.10 to 7.40,CSCC[C@H](NC(=O)[C@@H]1CCCN1C(=O)[C@H](Cc1ccc(O)cc1)NC(=O)[C@H](CS)NC(=O)[C@H](Cc1cnc[nH]1)NC(=O)[C@H](CC(N)=O)NC(=O)[C@H](CC(N)=O)NC(=O)[C@H](CC(N)=O)NC(=O)[C@H](CCCNC(=N)N)NC(=O)[C@H](CS)NC(=O)[C@H](CCC(N)=O)NC(=O)[C@H](Cc1ccccc1)NC(=O)[C@H](Cc1ccc(O)cc1)NC(=O)[C@H](CO)NC(=O)[C@H](C)NC(=O)[C@@H]1CCCN1C(=O)[C@@H](N)CS)C(=O)N[C@@H](CCC(=O)O)C(=O)N[C@@H](Cc1c[nH]c2ccccc12)C(=O)N[C@@H](CCCNC(=N)N)C(=O)N[C@@H](CS)C(=O)N[C@@H](CC(=O)O)C(=O)NCC(=O)N[C@@H](Cc1ccccc1)C(=O)N[C@@H](CCC(N)=O)C(=O)N[C@@H](CC(=O)O)C(=O)N[C@@H](CS)C(=O)N[C@@H](CCC(=O)O)C(=O)N[C@@H](CC(=O)O)C(=O)NCC(=O)N[C@@H](CO)C(=O)N[C@@H](CC(=O)O)C(=O)N[C@@H](CCC(=O)O)C(=O)N[C@@H](CCCCN)C(=O)NCC(=O)N[C@@H](CS)C(=O)N1CCC[C@H]1C(=O)N[C@@H](Cc1ccc(O)cc1)C(=O)N[C@@H](CCCNC(=N)N)C(=O)N[C@H](C(=O)O)[C@@H](C)O (H-CPASYFQCRNNNHCYPMEWRCDGFQDCEDGSDEKGCPYRT-OH)
≥ 9.00,≥ 9.00,CC[C@H](C)[C@H](NC(=O)[C@H](CC(=O)O)NC(=O)CNC(=O)[C@H](CC(=O)O)NC(=O)[C@H](CS)NC(=O)[C@H](CC(C)C)NC(=O)[C@H](Cc1ccccc1)NC(=O)[C@H](CO)NC(=O)[C@H](Cc1ccccc1)NC(=O)[C@@H]1CCCN1C(=O)[C@H](Cc1ccccc1)NC(=O)[C@H](CS)NC(=O)[C@@H](NC(=O)[C@H](CCCCN)NC(=O)[C@H](CC(=O)O)NC(=O)[C@H](C)NC(=O)[C@H](CS)NC(=O)[C@H](CCSC)NC(=O)[C@H](Cc1ccccc1)NC(=O)[C@H](CCC(=O)O)NC(=O)[C@H](CC(N)=O)NC(=O)[C@H](CCC(N)=O)NC(=O)[C@@H]1CCCN1C(=O)[C@@H](N)CS)[C@@H](C)O)C(=O)N[C@@H](CC(=O)O)C(=O)N[C@@H](CS)C(=O)N[C@@H](Cc1ccc(O)cc1)C(=O)N[C@@H](CC(=O)O)C(=O)NCC(=O)N[C@@H](CO)C(=O)N[C@@H](CC(=O)O)C(=O)N[C@@H](CCC(=O)O)C(=O)N[C@@H](C)C(=O)N[C@@H](Cc1ccc(O)cc1)C(=O)N[C@@H](CS)C(=O)N1CCC[C@H]1C(=O)N[C@@H](CO)C(=O)N[C@@H](CCCNC(=N)N)C(=O)N[C@H](C(=O)O)[C@@H](C)O (H-CPQNEFMCADKTCFPFSFLCDGDIDCYDGSDEAYCPSRT-OH)
≥ 9.00,≥ 9.00,CSCC[C@H](NC(=O)[C@@H]1CCCN1C(=O)[C@H](Cc1ccc(O)cc1)NC(=O)[C@H](CS)NC(=O)[C@H](Cc1cnc[nH]1)NC(=O)[C@@H]1CCCN1C(=O)[C@H](Cc1cnc[nH]1)NC(=O)[C@H](CO)NC(=O)CNC(=O)[C@H](CS)NC(=O)[C@H](CCC(N)=O)NC(=O)[C@H](Cc1ccccc1)NC(=O)[C@H](Cc1ccc(O)cc1)NC(=O)[C@H](CO)NC(=O)[C@H](C)NC(=O)[C@@H]1CCCN1C(=O)[C@@H](N)CS)C(=O)N[C@@H](CCC(=O)O)C(=O)N[C@@H](Cc1c[nH]c2ccccc12)C(=O)N[C@@H](CCCNC(=N)N)C(=O)N[C@@H](CS)C(=O)N[C@@H](CC(=O)O)C(=O)NCC(=O)N[C@@H](Cc1ccccc1)C(=O)N[C@@H](CCC(N)=O)C(=O)N[C@@H](CC(=O)O)C(=O)N[C@@H](CS)C(=O)N[C@@H](CCC(=O)O)C(=O)N[C@@H](CC(=O)O)C(=O)NCC(=O)N[C@@H](CO)C(=O)N[C@@H](CC(=O)O)C(=O)N[C@@H](CCC(=O)O)C(=O)N[C@@H](CC(C)C)C(=O)NCC(=O)N[C@@H](CS)C(=O)N1CCC[C@H]1C(=O)N[C@@H](Cc1ccc(O)cc1)C(=O)N[C@@H](CCCNC(=N)N)C(=O)N[C@H](C(=O)O)[C@@H](C)O (H-CPASYFQCGSHPHCYPMEWRCDGFQDCEDGSDELGCPYRT-OH)
≥ 9.00,≥ 9.00,CSCC[C@H](NC(=O)[C@@H]1CCCN1C(=O)[C@H](Cc1ccc(O)cc1)NC(=O)[C@H](CS)NC(=O)[C@H](Cc1cnc[nH]1)NC(=O)[C@H](CC(N)=O)NC(=O)[C@H](CCCNC(=N)N)NC(=O)[C@H](CC(N)=O)NC(=O)[C@H](CCCNC(=N)N)NC(=O)[C@H](CS)NC(=O)[C@H](CCCNC(=N)N)NC(=O)[C@H](Cc1ccccc1)NC(=O)[C@H](Cc1ccc(O)cc1)NC(=O)[C@H](CO)NC(=O)[C@H](C)NC(=O)[C@@H]1CCCN1C(=O)[C@@H](N)CS)C(=O)N[C@@H](CCC(=O)O)C(=O)N[C@@H](Cc1c[nH]c2ccccc12)C(=O)N[C@@H](CCCNC(=N)N)C(=O)N[C@@H](CS)C(=O)N[C@@H](CC(=O)O)C(=O)NCC(=O)N[C@@H](Cc1ccccc1)C(=O)N1CCC[C@H]1C(=O)N[C@@H](CC(=O)O)C(=O)N[C@@H](CS)C(=O)N[C@@H](CCC(=O)O)C(=O)N[C@@H](CC(=O)O)C(=O)N[C@@H](C)C(=O)N[C@@H](CO)C(=O)N[C@@H](CC(=O)O)C(=O)N[C@@H](CCC(=O)O)C(=O)N[C@@H](CCCCN)C(=O)NCC(=O)N[C@@H](CS)C(=O)N1CCC[C@H]1C(=O)N[C@@H](Cc1ccc(O)cc1)C(=O)N[C@@H](CCCNC(=N)N)C(=O)N[C@H](C(=O)O)[C@@H](C)O (H-CPASYFRCRNRNHCYPMEWRCDGFPDCEDASDEKGCPYRT-OH)
≥ 9.00,≥ 9.00,CSCC[C@H](NC(=O)[C@@H]1CCCN1C(=O)[C@H](Cc1ccc(O)cc1)NC(=O)[C@H](CS)NC(=O)[C@H](Cc1cnc[nH]1)NC(=O)[C@H](CC(N)=O)NC(=O)[C@H](Cc1cnc[nH]1)NC(=O)[C@H](CC(N)=O)NC(=O)[C@H](CCCNC(=N)N)NC(=O)[C@H](CS)NC(=O)[C@H](CCCNC(=N)N)NC(=O)[C@H](Cc1ccccc1)NC(=O)[C@H](Cc1ccc(O)cc1)NC(=O)[C@H](CO)NC(=O)[C@H](C)NC(=O)[C@@H]1CCCN1C(=O)[C@@H](N)CS)C(=O)N[C@@H](CCC(=O)O)C(=O)N[C@@H](Cc1c[nH]c2ccccc12)C(=O)N[C@@H](CCCNC(=N)N)C(=O)N[C@@H](CS)C(=O)N[C@@H](CC(=O)O)C(=O)NCC(=O)N[C@@H](Cc1ccccc1)C(=O)N[C@@H](CC(=O)O)C(=O)N[C@@H](CC(=O)O)C(=O)N[C@@H](CS)C(=O)N[C@@H](CCC(=O)O)C(=O)N[C@@H](CC(=O)O)C(=O)NCC(=O)N[C@@H](CO)C(=O)N[C@@H](CC(=O)O)C(=O)N[C@@H](CCC(=O)O)C(=O)N[C@@H](CCC(N)=O)C(=O)NCC(=O)N[C@@H](CS)C(=O)N1CCC[C@H]1C(=O)N[C@@H](Cc1ccc(O)cc1)C(=O)N[C@@H](CCCNC(=N)N)C(=O)N[C@H](C(=O)O)[C@@H](C)O (H-CPASYFRCRNHNHCYPMEWRCDGFDDCEDGSDEQGCPYRT-OH)
